Tests used:
[1] = target: HCV RNA-dependent RNA polymerase (NS5B) (Hepatitis C virus genotype 1b (isolate BK) (HCV), UniProt P26663); experiment: RNA-Dependent RNA HCV NS5B (polymerase) Assay and IC50 Determination; format: biochemical; conditions: purified HCV NS5B polymerase, polyA:U16 substrate, 32P-UTP incorporation; read-out: IC50
Outline: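 Purified NS5B was incubated with 0.5 uM polyA:U16, 10 μM UTP plus ^32P-UTP in 50 mM Hepes-KOH pH 7.5, 5 mM MgCl2, 5 mM DTT, 2% glycerol and 0.01% Triton X-100. Inhibitor reactions ran 60 min at 37° C, and radiolabelled RNA product was quantified after filter capture. IC50 values were obtained from concentration series.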

[2] = system: HCV subgenomic RNA replicon in Huh-luc/neo-ET cells; experiment: HCV Replicon Assay and EC50 Determination; format: cell-based; conditions: Hepatitis C virus, 72 hours, luciferase reporter activity
Description: HCV Replicon Assay and EC50 Determination.
HCV replicon assay is based on the luciferase reporter cell line (Huh-luc/neo-ET). This reporter cell line is a human liver carcinoma cell line (Huh-7) stably transfected with an autonomously replicating bicistronic HCV subgenomic RNA replicon (Lohmann et al., 1999, Science, 285, 110-113). Inhibition of HCV RNA replication was monitored through analysis of reporter luciferase activity. Briefly, HCV replicon cells were incubated with inhibitors for 72 hours at 37° C. After the incubation, duplicate plates were treated and incubated in parallel for assessment of cellular toxicity by XTT staining and anti-HCV activity by measurement of luciferase reporter activity. Either human interferon alpha 2B or ribavirin was used as a reference compound. EC50 values were determined using GraFit (Erithaus software) or Excel.
Table 2 presents EC50 data obtained using this HCV replicaon assay to test representative compounds. Data are presented as follows: “+++” means <0.1 μM; “++” means ≥0.1 μM and <1.0 μM; “+” means ≥1.0 μM.

HCV RNA-dependent RNA polymerase (NS5B), sequence (P26663 2420-3010): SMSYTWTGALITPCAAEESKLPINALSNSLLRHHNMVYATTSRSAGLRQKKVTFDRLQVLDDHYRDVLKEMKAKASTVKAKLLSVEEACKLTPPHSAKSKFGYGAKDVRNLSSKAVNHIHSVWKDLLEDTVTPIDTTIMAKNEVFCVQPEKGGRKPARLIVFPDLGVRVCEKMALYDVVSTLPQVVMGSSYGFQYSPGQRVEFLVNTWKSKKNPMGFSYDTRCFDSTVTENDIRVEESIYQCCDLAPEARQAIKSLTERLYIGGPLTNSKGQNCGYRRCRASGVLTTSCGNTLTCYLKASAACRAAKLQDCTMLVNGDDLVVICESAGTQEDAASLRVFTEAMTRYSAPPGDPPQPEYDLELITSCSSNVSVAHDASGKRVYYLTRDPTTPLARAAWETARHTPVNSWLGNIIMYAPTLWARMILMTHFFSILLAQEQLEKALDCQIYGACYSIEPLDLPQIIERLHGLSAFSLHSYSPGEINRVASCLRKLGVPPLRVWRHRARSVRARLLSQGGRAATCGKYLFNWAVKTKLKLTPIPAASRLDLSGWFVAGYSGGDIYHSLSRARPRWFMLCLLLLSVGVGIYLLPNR

Compound	IC50 [1]	EC50 [2]
CNC(=O)c1c(-c2ccc(F)cc2)oc2cc(N(CCOCCOCc3ccc(OC)c(C(=O)O)c3)S(C)(=O)=O)c(C3CC3)cc12 [Compound 17B-8, 5-[2-(2-{[5-Cyclopropyl-2-(4-fluoro-phenyl)-3-methylcarbamoyl-benzofuran-6-yl]-methanesulfonyl-amino}-ethoxy)-ethoxymethyl]-2-methoxy-benzoic Acid]	100 to 1000 nM	100 to 1000 nM
CNC(=O)c1c(-c2ccc(F)cc2)oc2cc(N(CC(=O)NCC(=O)NCc3cccc(C(=O)/C=C(\O)C(=O)O)c3)S(C)(=O)=O)c(C3CC3)cc12 [Compound 09-14A, 4-(3-{[2-(2-{[5-Cyclopropyl-2-(4-fluoro-phenyl)-3-methylcarbamoyl-benzofuran-6-yl]-methanesulfonyl-amino}-acetylamino)-acetylamino]-methyl}-phenyl)-2-hydroxy-4-oxo-but-2-enoic Acid]	100 to 1000 nM	100 to 1000 nM
CNC(=O)c1c(-c2ccc(F)cc2)oc2cc(N(CCCCCOCc3ccc(C(=O)O)cc3)S(C)(=O)=O)c(C3CC3)cc12 [Compound 16-7, 4-(5-{[5-Cyclopropyl-2-(4-fluoro-phenyl)-3-methylcarbamoyl-benzofuran-6-yl]-methanesulfonyl-amino}-pentyloxymethyl)-benzoic Acid]	100 to 1000 nM	< 100 nM
CNC(=O)c1c(-c2ccc(F)cc2)oc2cc(N(CC(=O)NC(C)(C)C(=O)NCc3cccc(C(=O)C=C(O)C(=O)O)c3)S(C)(=O)=O)c(C3CC3)cc12 [Compound 09-14C, 4-(3-{[2-(2-{[5-Cyclopropyl-2-(4-fluoro-phenyl)-3-methylcarbamoyl-benzofuran-6-yl]-methanesulfonyl-amino}-acetylamino)-2-methyl-propionylamino]-methyl}-phenyl)-2-hydroxy-4-oxo-but-2-enoic Acid]	> 1000 nM	100 to 1000 nM
CNC(=O)c1c(-c2ccc(F)cc2)oc2cc(N(CCOCCOCc3ccc(F)c(C(=O)O)c3)S(C)(=O)=O)c(C3CC3)cc12 [Compound 17A-8A, 5-[2-(2-{[5-Cyclopropyl-2-(4-fluoro-phenyl)-3-methylcarbamoyl-benzofuran-6-yl]-methanesulfonyl-amino}-ethoxy)-ethoxymethyl]-2-fluoro-benzoic Acid]	100 to 1000 nM	< 100 nM
CNC(=O)c1c(-c2ccc(F)cc2)oc2cc(N(CCCCCCCc3ccc(C(=O)O)cc3)S(C)(=O)=O)c(C3CC3)cc12 [Compound 13-8D, 4-(7-{[5-Cyclopropyl-2-(4-fluoro-phenyl)-3-methylcarbamoyl-benzofuran-6-yl]-methanesulfonyl-amino}-heptyl)-benzoic Acid]	100 to 1000 nM	< 100 nM
CNC(=O)c1c(-c2ccc(F)cc2)oc2cc(N(CCOCCOCCOCCOCCOCCOCc3cccc(C(=O)/C=C(\O)C(=O)O)c3)S(C)(=O)=O)c(C3CC3)cc12 [Compound 02-10E, 4-(3-{2-[2-(2-{2-[2-(2-{[5-Cyclopropyl-2-(4-fluoro-phenyl)-3-methylcarbamoyl-benzofuran-6-yl]-methanesulfonyl-amino}-ethoxy)-ethoxy]-ethoxy}-ethoxy)-ethoxy]-ethoxymethyl}-phenyl)-2-hydroxy-4-oxo-but-2-enoic Acid]	> 1000 nM	100 to 1000 nM
CNC(=O)c1c(-c2ccc(F)cc2)oc2cc(N(CCOCCCc3cccc(C(=O)/C=C(\O)C(=O)O)c3)S(C)(=O)=O)c(C3CC3)cc12 [Compound 22-12, 4-(3-(3-(2-(N-(5-cyclopropyl-2-(4-fluorophenyl)-3-(methylcarbamoyl)benzofuran-6-yl)methylsulfonamido)-ethoxy)-propyl)-phenyl)-2-hydroxy-4-oxobut-2-enoic Acid]	> 1000 nM	< 100 nM
CNC(=O)c1c(-c2ccc(F)cc2)oc2cc(N(CCOCCCOCc3cccc(C(=O)/C=C(\O)C(=O)O)c3)S(C)(=O)=O)c(C3CC3)cc12 [Compound 03-8B, 4-{3-[3-(2-{[5-Cyclopropyl-2-(4-fluoro-phenyl)-3-methylcarbamoyl-benzofuran-6-yl]-methanesulfonyl-amino}-ethoxy)-propoxymethyl]-phenyl}-2-hydroxy-4-oxo-but-2-enoic Acid]	> 1000 nM	< 100 nM
